This assay deals with T1, Histone deacetylase (Plasmodium falciparum (isolate 3D7), UniProt Q7K6A1).
T1 sequence (Q7K6A1 whole entry): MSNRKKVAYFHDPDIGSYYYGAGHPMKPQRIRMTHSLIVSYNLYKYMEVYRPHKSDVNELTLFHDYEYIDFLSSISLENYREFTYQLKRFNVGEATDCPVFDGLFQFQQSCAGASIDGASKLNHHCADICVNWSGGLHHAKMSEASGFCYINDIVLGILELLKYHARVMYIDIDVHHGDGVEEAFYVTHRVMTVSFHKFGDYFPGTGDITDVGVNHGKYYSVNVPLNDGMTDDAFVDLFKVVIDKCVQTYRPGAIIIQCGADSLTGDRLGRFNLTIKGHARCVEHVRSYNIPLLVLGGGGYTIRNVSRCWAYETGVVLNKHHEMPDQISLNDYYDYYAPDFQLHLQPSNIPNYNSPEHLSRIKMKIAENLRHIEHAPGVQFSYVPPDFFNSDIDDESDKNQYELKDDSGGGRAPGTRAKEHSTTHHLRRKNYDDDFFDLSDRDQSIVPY
Kind of assay: Inhibition of HDAC1 in Plasmodium falciparum 3D7 nuclear extract using Ac-RGK(Ac)-AMC fluorogenic peptide as substrate preincubated for 1 hr followed by substrate addition measured after 10 min by fluorescence assay.

As a reminder, the IC50 is the concentration needed to halve the response being measured. A higher IC50 goes with weaker potency. With `C/C=C1\NC(=O)[C@H]2CSSCC/C=C/[C@@H](CC(=O)N[C@H](C(C)C)C(=O)N2)OC(=O)[C@H](C(C)C)NC1=O`, inhibition was half-maximal at 0.9 nM (IC50).

The values above are taken from BindingDB's records for doi:10.1021/acs.jmedchem.6b01595 (Dipartimento Di Chimica E Tecnologie Del Farmaco "Sapienza" …, 2017).
